The values that follow come from patent US12252644B2, “Polarizer and image display device” (FUJIFILM Corporation, priority 2019, dated 2025).

Structures are written as SMILES.

A short description of this series: Measurement of maximum absorption wavelength. It is filed as physicochemical. The settings on record: solution in a good solvent, spectrophotometer UV-3150, 250 to 800 nm. The method, then: The maximum absorption wavelength (nm) of the dichroic material in the present specification is acquired from an ultraviolet visible spectrum in a wavelength range of 380 to 800 nm measured by a spectrophotometer using a solution prepared by dissolving the dichroic material in a good solvent.
The maximum absorption wavelengths of the dichroic materials used in the examples and the comparative examples were measured. The maximum absorption wavelength was acquired from the ultraviolet visible light spectrum in a wavelength range of 250 to 800 nm which was measured by a spectrophotometer (product name, “UV-3150”, manufactured by Shimadzu Corporation) using a solution in which the dichroic material was dissolved in a good solvent.
For the compound `C=CC(=O)OCCN(CC)c1ccc(N=Nc2nc3sc(N=Nc4ccc(OCCCCCCCCCOC(C)=O)cc4)cc3s2)cc1` [Example C-1], the “First dichroic material maximum absorption wavelength” value worked out at 591 nm.

For the compound `CCC(=O)OCCN(C)c1ccc(N=Nc2ccc(N=Nc3ccc(OCCCCCCCCCOC(C)=O)cc3)cc2)cc1` [Example M-1], the “Second dichroic material maximum absorption wavelength” value amounted to 466 nm.

On to `CCC(=O)OCCCCCCCCCOc1ccc(N=Nc2ccc(N=Nc3ccc(N(CC)CCOC(=O)CC)cc3)cc2)cc1` [Example M-2], for which the “Second dichroic material maximum absorption wavelength” value is listed as 471 nm.

`C=CC(=O)OCCN(CC)c1ccc(N=Nc2ccc(N=Nc3ccc(OCCCCCCCCCOC(=O)CC)cc3)cc2)cc1` [Example M-3]: the “Second dichroic material maximum absorption wavelength” value amounted to 471 nm.

Regarding `CCC(=O)OCCCCCCCCCOc1ccc(N=Nc2ccc(N=Nc3ccc(N(CC)CCC#N)cc3)cc2)c(Cl)c1` [Example M-4], the “Second dichroic material maximum absorption wavelength” value came out at 460 nm.

For the compound `CCN(CC)c1ccc(N=Nc2ccc(N=Nc3ccc(OCCCCCCCCCOC(C)=O)cc3)cc2)cc1` [Example M-5], the “Second dichroic material maximum absorption wavelength” value is given as 484 nm.

`CC(=O)OCCCCCCCCCOc1ccc(N=Nc2ccc(N=Nc3ccc(N(C)CCOC(C)=O)cc3)cc2)cc1` [Example M-6]: the “Second dichroic material maximum absorption wavelength” value was 465 nm.

In the case of `C=CC(=O)OCCCCOc1ccc(N=Nc2ccc(N=Nc3ccc(N=Nc4ccc(OCCCCOC(C)=O)cc4)cc3)c(C)c2)cc1` [Example Y-1], the “Third dichroic material maximum absorption wavelength” value was 418 nm.

As for `CCOC(=O)CCCCOc1ccc(N=Nc2ccc(N=Nc3ccc(N=Nc4ccc(OCCCCC(=O)OCC)cc4)cc3C)cc2)cc1` [Example Y-2], the “Third dichroic material maximum absorption wavelength” value was determined as 418 nm.
